Source: patent publication US20240415819A1, “MACROCYCLIC COMPOUNDS AS PROTEASOME SUBUNIT BETA TYPE-5 INHIBITORS” (Lead Discovery Center GmbH, priority 2021, published 2024)
pIC50: −log10 of the molar value.

Columns and labels:
[1] = system: hPMBC; assay: Chymotrypsin-like ProteasomeGlo assay in hPBMC; assay type: cell-based; details: Homo sapiens; read-out: Pglo hPBMC
Outline: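 B cells isolated from human PBMC (buffy coats, density gradient, magnetic isolation). Cells treated with compound for 105 min at 37 °C, with staurosporine and DMSO included. Chymotrypsin-like proteasome activity read by luminescence with Suc-LLVY-Glo substrate to derive IC50.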

[2] = molecular target: T1, β5 subunit of the human immunoproteasome (IPS) (Homo sapiens, UniProt P28062); assay: β5 inhibition assay, human immunoproteasome (Suc-LLVY-AMC); assay type: biochemical; details: IC50 class, Suc-LLVY-AMC substrate
T1 construct: purchased Boston Biochem E-370
Outline: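 Human immunoproteasome (1 nM final) was preincubated 10 min at RT with compound in 100 mM HEPES pH 7.5, 50 mM NaCl, 0.02% SDS, 1 mM DTT. Suc-LLVY-AMC (22.6 μM final) was then added for 4 h at RT in the dark. After stopping with 1 μM bortezomib, AMC fluorescence was read (ex 355/em 460 nm).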

| pIC50 [1] | pIC50 [2] | SMILES |
| --- | --- | --- |
| > 7.00 | > 7.00 | COc1cccc(CC(=O)N[C@H]2CC(=O)N3CCCC(CCOc4ccc(C)c(c4)CNC(=O)[C@H](CCc4ccccc4)NC2=O)C3)c1 (stereo partly drawn) [Compound 85, 2-(3-methoxyphenyl)-N-((9S,12S)-5^4-methyl-8,11,14-trioxo-9-phenethyl-4-oxa-7,10-diaza-1(3,1)-piperidina-5(1,3)-benzenacyclotetradecaphane-12-yl)acetamide] |
| > 7.00 | > 7.00 | Cc1ccc2cc1CNC(=O)[C@H](CCc1ccccc1)NC(=O)[C@@H](NC(=O)c1cc3cc(C(F)(F)F)ccc3n1C)CC(=O)N1CCCC(CCO2)C1 (stereo partly drawn) [Compound 87, 1-methyl-N-((9S,12S)-5^4-methyl-8,11,14-trioxo-9-phenethyl-4-oxa-7,10-diaza-1(3,1)-piperidina-5(1,3)-benzenacyclotetradecaphane-12-yl)-5-(trifluoromethyl)-1H-indole-2-carboxamide] |
| > 7.00 | > 7.00 | CO[C@@H](C(=O)N[C@H]1CC(=O)N2CCCC(CCOc3ccc(C)c(c3)CNC(=O)[C@H](CCc3ccccc3)NC1=O)C2)c1ccccc1 (stereo partly drawn) [Compound 86, (2R)-2-methoxy-N-((9S,12S)-5^4-methyl-8,11,14-trioxo-9-phenethyl-4-oxa-7,10-diaza-1(3,1)-piperidina-5(1,3)-benzenacyclotetradecaphane-12-yl)-2-phenylacetamide] |
| > 7.00 | > 7.00 | Cc1ccc2cc1CNC(=O)[C@H](CCc1ccccc1)NC(=O)[C@@H](NC(=O)C1(F)CCNCC1)CC(=O)N1CCCC(CCO2)C1 (stereo partly drawn) [Compound 134, 4-fluoro-N-((9S,12S)-5^4-methyl-8,11,14-trioxo-9-phenethyl-4-oxa-7,10-diaza-1(3,1)-piperidina-5(1,3)-benzenacyclotetradecaphane-12-yl)piperidine-4-carboxamide] |
| > 7.00 | > 7.00 | CC(=O)N[C@H]1CC(=O)N2CCCC(CCOc3ccc(C)c(c3)CNC(=O)C(c3cnn(CCCC(=O)O)c3)NC1=O)C2 (stereo partly drawn) [Compound 568, 4-(4-((12S)-12-acetamido-5^4-methyl-8,11,14-trioxo-4-oxa-7,10-diaza-1(3,1)-piperidina-5(1,3)-benzenacyclotetradecaphane-9-yl)-1H-pyrazol-1-yl)butanoic acid] |
| > 7.00 | > 7.00 | Cc1ccc2cc1CNC(=O)[C@H](CCc1ccccc1)NC(=O)[C@@H](NC(=O)C1CC(F)(F)CN1)CC(=O)N1CCCC(CCO2)C1 (stereo partly drawn) [Compound 135, (2S)-4,4-difluoro-N-((9S,12S)-5^4-methyl-8,11,14-trioxo-9-phenethyl-4-oxa-7,10-diaza-1(3,1)-piperidina-5(1,3)-benzenacyclotetradecaphane-12-yl)pyrrolidine-2-carboxamide] |
| > 7.00 | > 7.00 | Cc1ccc2cc1CNC(=O)[C@H](CCc1ccccc1)NC(=O)[C@@H](NC(=O)Cc1ccc(N)cc1)CC(=O)N1CCCC(CCO2)C1 (stereo partly drawn) [Compound 128, 2-(4-aminophenyl)-N-((9S,12S)-5^4-methyl-8,11,14-trioxo-9-phenethyl-4-oxa-7,10-diaza-1(3,1)-piperidina-5(1,3)-benzenacyclotetradecaphane-12-yl)acetamide] |
| > 7.00 | > 7.00 | Cc1ccc2cc1CNC(=O)[C@H](CCc1ccccc1)NC(=O)[C@@H](NC(=O)[C@H](C)c1ccccc1)CC(=O)N1CCCC(CCO2)C1 (stereo partly drawn) [Compound 80, (2R)-N-((9S,12S)-5^4-methyl-8,11,14-trioxo-9-phenethyl-4-oxa-7,10-diaza-1(3,1)-piperidina-5(1,3)-benzenacyclotetradecaphane-12-yl)-2-phenylpropanamide] |
| > 7.00 | > 7.00 | CNCC(=O)N[C@H]1CC(=O)N2CCCC(CCOc3ccc(C)c(c3)CNC(=O)[C@H](CCc3ccccc3)NC1=O)C2 (stereo partly drawn) [Compound 129, N-((9S,12S)-5^4-methyl-8,11,14-trioxo-9-phenethyl-4-oxa-7,10-diaza-1(3,1)-piperidina-5(1,3)-benzenacyclotetradecaphane-12-yl)-2-(methylamino)acetamide] |
| > 7.00 | > 7.00 | Cc1ccc2cc1CNC(=O)[C@H](CCc1ccccc1)NC(=O)[C@@H](NC(=O)C1CCNCC1(F)F)CC(=O)N1CCCC(CCO2)C1 (stereo partly drawn) [Compound 152, 3,3-difluoro-N-((9S,12S)-5^4-methyl-8,11,14-trioxo-9-phenethyl-4-oxa-7,10-diaza-1(3,1)-piperidina-5(1,3)-benzenacyclotetradecaphane-12-yl)piperidine-4-carboxamide] |
| > 7.00 | > 7.00 | CC(=O)N[C@H]1CCC(=O)NCCCCOc2ccc(C)c(c2)CNC(=O)[C@H](CCc2ccccc2)NC1=O [Compound 171, N-((11S,14S)-1^4-methyl-8,12,15-trioxo-14-phenethyl-2-oxa-7,13,16-triaza-1(1,3)-benzenacycloheptadecaphane-11-yl)acetamide] |
| > 7.00 | > 7.00 | Cc1ccc2cc1CNC(=O)[C@H](CCc1ccccc1)NC(=O)[C@@H](NC(=O)C1CCCc3ccccc31)CC(=O)N1CCCC(CCO2)C1 (stereo partly drawn) [Compound 82, N-((9S,12S)-5^4-methyl-8,11,14-trioxo-9-phenethyl-4-oxa-7,10-diaza-1(3,1)-piperidina-5(1,3)-benzenacyclotetradecaphane-12-yl)-1,2,3,4-tetrahydronaphthalene-1-carboxamide] |
| > 7.00 | > 7.00 | CC(=O)N[C@H]1CCC(=O)N2CCCC(CCOc3ccc(C)c(c3)CNC(=O)[C@H](CCc3ccccc3)NC1=O)C2 (stereo partly drawn) [Compound 215, N-((9S,12S)-5^4-methyl-8,11,15-trioxo-9-phenethyl-4-oxa-7,10-diaza-1(3,1)-piperidina-5(1,3)-benzenacyclopentadecaphane-12-yl)acetamide] |
| 6.30 to 7.00 | > 7.00 | COc1ccc2cc1CNC(=O)[C@H](CCc1ccccc1)NC(=O)[C@@H](NC(C)=O)CC(=O)N1CCCC(CCO2)C1 (stereo partly drawn) [Compound 211, N-((9S,12S)-5^4-methoxy-8,11,14-trioxo-9-phenethyl-4-oxa-7,10-diaza-1(3,1)-piperidina-5(1,3)-benzenacyclotetradecaphane-12-yl)acetamide] |
| 6.30 to 7.00 | > 7.00 | CC(=O)N[C@H]1CCCC(=O)N2CCOC(CCOc3ccc(C)c(c3)CNC(=O)[C@H](CCc3ccccc3)NC1=O)C2 (stereo partly drawn) [Compound 186, N-((9S,12S)-5^4-methyl-8,11,16-trioxo-9-phenethyl-4-oxa-7,10-diaza-1(2,4)-morpholina-5(1,3)-benzenacyclohexadecaphane-12-yl)acetamide] |
| > 7.00 | > 7.00 | Cc1ccc2cc1CNC(=O)[C@H](CCc1ccccc1)NC(=O)[C@@H](NC(=O)C1CCC(C(F)(F)F)N1)CC(=O)N1CCCC(CCO2)C1 (stereo partly drawn) [Compound 157, N-((9S,12S)-5^4-methyl-8,11,14-trioxo-9-phenethyl-4-oxa-7,10-diaza-1(3,1)-piperidina-5(1,3)-benzenacyclotetradecaphane-12-yl)-5-(trifluoromethyl)pyrrolidine-2-carboxamide] |
| 6.30 to 7.00 | > 7.00 | Cc1ccc2cc1CNC(=O)[C@H](Cc1c[nH]c3ccccc13)NC(=O)CCC(=O)N1CCCC(CCO2)C1 (stereo partly drawn) [Compound 77, (9S)-9-((1H-indol-3-yl)methyl)-5^4-methyl-4-oxa-7,10-diaza-1(3,1)-piperidina-5(1,3)-benzenacyclotetradecaphane-8,11,14-trione] |
| > 7.00 | > 7.00 | CC(=O)N[C@H]1CCC(=O)N2CCOC(CCOc3ccc(C)c(c3)CNC(=O)[C@H](CCc3ccccc3)NC1=O)C2 (stereo partly drawn) [Compound 143, N-((9S,12S)-5^4-methyl-8,11,15-trioxo-9-phenethyl-4-oxa-7,10-diaza-1(2,4)-morpholina-5(1,3)-benzenacyclopentadecaphane-12-yl)acetamide] |
| > 7.00 | > 7.00 | Cc1ccc2cc1CNC(=O)[C@H](CCc1ccccc1)NC(=O)[C@@H](NC(=O)C1(C)COC1)CC(=O)N1CCCC(CCO2)C1 (stereo partly drawn) [Compound 287, 3-methyl-N-((9S,12S)-5^4-methyl-8,11,14-trioxo-9-phenethyl-4-oxa-7,10-diaza-1(3,1)-piperidina-5(1,3)-benzenacyclotetradecaphane-12-yl)oxetane-3-carboxamide] |
| > 7.00 | > 7.00 | Cc1ccc2cc1CNC(=O)[C@H](CCc1ccccc1)NC(=O)[C@@H](NC(=O)OCc1ccccc1)CCC(=O)N1CCCC(CCO2)C1 (stereo partly drawn) [Compound 199, benzyl ((9S,12S)-5^4-methyl-8,11,15-trioxo-9-phenethyl-4-oxa-7,10-diaza-1(3,1)-piperidina-5(1,3)-benzenacyclopentadecaphane-12-yl)carbamate] |
| > 7.00 | > 7.00 | Cc1ccc2cc1CNC(=O)[C@H](CCc1ccccc1)NC(=O)[C@@H](NC(=O)C(C)(CO)CO)CC(=O)N1CCCC(CCO2)C1 (stereo partly drawn) [Compound 286, 3-hydroxy-2-(hydroxymethyl)-2-methyl-N-((9S,12S)-5^4-methyl-8,11,14-trioxo-9-phenethyl-4-oxa-7,10-diaza-1(3,1)-piperidina-5(1,3)-benzenacyclotetradecaphane-12-yl)propanamide] |

| SMILES | pIC50 [1] | pIC50 [2] |
| --- | --- | --- |
| COCCOCCOCCOC(=O)N[C@H]1CC(=O)N2CCCC(CCOc3ccc(C)c(c3)CNC(=O)[C@H](CCc3ccccc3)NC1=O)C2 (stereo partly drawn) [Compound 220, 2-(2-(2-methoxyethoxy)ethoxy)ethyl ((9R,12R)-5^4-methyl-8,11,14-trioxo-9-phenethyl-4-oxa-7,10-diaza-1(3,1)-piperidina-5(1,3)-benzenacyclotetradecaphane-12-yl)carbamate] | > 7.00 | > 7.00 |
